Measured values reported in patent US20260374766A1, “METHODS FOR TREATING CANCER” (Antares Therapeutics, Inc., priority 2022, published 2026).
Read-outs that look alike come from different tables or passages of the source.

Tests used:
NUGC3 p53 Y220C = test: Cell Proliferation Assay (CellTiter-Glo, CTG), NUGC3 p53 Y220C; assay type: cell-based; conditions: Homo sapiens, NUGC-3, 120 h, CellTiter-Glo, 5 days
Method: (§1) Inducible p53 Y220C and R273H constructs (Tet-One inducible expression system; Takara) were stably expressed in NClH1299 cells by lentiviral transduction. NUGC3, A549, BxPC3, T3M4, HuH7, HCC2935, MFE296, NClH1299, NClH1299-inducible p53 Y220C, and NClH1299-inducible p53 R273H cell lines were used for cell proliferation assay. 250-500 cells were seeded in each well of 384 plate and then compounds were dispensed into each well using Echo or Tecan. After 5 days of incubation, equal volume of CellTiter-Glo reagent (G7570; Promega) was added into each well and the plate was incubated at room temperature for 10 minutes with shaking. The luminescent signal was measured by PheraStar microplate reader and IC50 was calculated.

H1299 p53 R273H = test: Cell Proliferation Assay (CellTiter-Glo, CTG), H1299 p53 R273H (NClH1299-inducible p53 R273H); assay type: cell-based; conditions: Homo sapiens, NCI-H1299, 120 h, CellTiter-Glo, 5 days
Method: as §1

[1] = biological target: T1, p53 Y220C mutant protein (amino acid residues 94-293) (Homo sapiens, UniProt P04637, Y220C); test: Surface Plasmon Resonance (SPR) assay, Kd_kinetic; assay type: binding; conditions: SPR, p53 Y220C, read-out: SPR P53 Y220C KD kinetic
T1 construct: p53 Y220C mutant protein (amino acid residues 94-293)
T1 sequence (P04637 94-293, stated change not applied): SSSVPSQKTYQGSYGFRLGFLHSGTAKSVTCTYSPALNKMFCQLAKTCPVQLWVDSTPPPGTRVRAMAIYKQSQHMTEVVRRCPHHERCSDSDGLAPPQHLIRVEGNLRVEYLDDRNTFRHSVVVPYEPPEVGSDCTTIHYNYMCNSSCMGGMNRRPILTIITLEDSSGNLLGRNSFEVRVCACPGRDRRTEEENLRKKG
Method: Surface Plasmon Resonance (SPR) Assay Protocol
SPR experiments were performed on a Biacore 8K instrument. […] The running buffer contained 50 mM Tris, pH 7.5, 100 mM NaCl, 1 mM DTT, 0.01% Brij35, 0.05% Tween-20 and 1% DMSO. The assay temperature was maintained at 16 or 20 °C and data were fit into the 1:1 binding model using the Biacore Insight Evaluation software.

H1299 p53 Y220C = test: Cell Proliferation Assay (CellTiter-Glo, CTG), H1299 p53 Y220C (NClH1299-inducible p53 Y220C); assay type: cell-based; conditions: Homo sapiens, NCI-H1299, 120 h, CellTiter-Glo, 5 days
Method: as §1

p53 Y220C = p53 Y220C (Homo sapiens, UniProt P04637, Y220C); test: Luciferase Reporter Assay (Luc), p53 response element, NClH1299 cells with inducible p53 Y220C; assay type: cell-based; conditions: luciferase reporter, NClH1299 inducible p53 Y220C, 6 hour; for AC50: read-out: Luc P53 Y220C AC50
Method: Luciferase Reporter Assay Protocol
The cells were then used for p53 reporter assay. 5,000 cells were seeded in each well of 384 plate and cultured in 0.5 ug/mL doxycycline (D3072; Sigma) containing medium for 24 hours before compound treatment. After 6 hour of compound treatment, equal volume of One-Glo reagent (E6110; Promega) was added to each well and the plate was incubated for 5 minutes with shaking at room temperature. The luciferase activity was immediately measured with PheraStar microplate reader.

[2] = 10 uM tool compound as positive control
[3] = NClH1299-inducible p53 R273H cells
[4] = NClH1299-inducible p53 Y220C cells

IC50 (H1299 p53 R273H; H1299 p53 R273H)	Kd ([1]; kinetic KD)	IC50 (H1299 p53 Y220C; H1299 p53 Y220C)	Emax (p53 Y220C; [2])	AC50 (p53 Y220C)	IC50 (H1299 p53 R273H; [3])	Kd [1]	IC50 (H1299 p53 Y220C; [4])	AC50 (p53 Y220C; AC50)	Emax (p53 Y220C; Emax)	SMILES	IC50 (NUGC3 p53 Y220C; NUGC3 p53 Y220C)	IC50 (NUGC3 p53 Y220C; NUGC3 cells)
≥ 10000 nM	< 10 nM	< 750 nM	80 to 90%	< 750 nM	–	–	–	–	–	CNC(=O)c1c[nH]nc1NCC#Cc1nc2c(N[C@@H]3CCN(C)C[C@@H]3F)cccn2c1SC(F)(F)F [Example 198]	< 750 nM	–
≥ 10000 nM	10 to 100 nM	> 3000 nM	< 70%	> 3000 nM	–	–	–	–	–	CNC(=O)c1ccc(NCC#Cc2nn3c(N[C@@H]4CCN(C)C[C@@H]4F)ccnc3c2SC(F)(F)F)c(OC)c1 [Example 205]	> 3000 nM	–
≥ 10000 nM	< 10 nM	< 750 nM	> 90%	< 750 nM	–	–	–	–	–	CNC(=O)c1ccc(OC)c(NCC#Cc2cc3c(N[C@@H]4CN(C)C[C@@H]4F)nccn3c2SC(F)(F)F)c1 [Example 208]	< 750 nM	–
≥ 10000 nM	< 10 nM	750 to 1500 nM	> 90%	< 750 nM	–	–	–	–	–	CNC(=O)c1ccc(OC)c(NCC#Cc2cc3c(N[C@@H]4CNC[C@@H]4F)nccn3c2SC(F)(F)F)c1 [Example 209]	< 750 nM	–
≥ 10000 nM	< 10 nM	750 to 1500 nM	80 to 90%	750 to 1500 nM	–	–	–	–	–	CNC(=O)c1ccc(OC)c(NCC#Cc2cc3c(N[C@@H]4CNC[C@@H]4F)nccn3c2SC(F)(F)F)n1 [Example 210]	750 to 1500 nM	–
≥ 10000 nM	< 10 nM	< 750 nM	80 to 90%	< 750 nM	–	–	–	–	–	CNC(=O)c1ccc(OC)c(NCC#Cc2cc3c(N[C@@H]4CN(C)C[C@@H]4F)nccn3c2SC(F)(F)F)n1 [Example 211]	750 to 1500 nM	–
≥ 10000 nM	< 10 nM	< 750 nM	> 90%	< 750 nM	–	–	–	–	–	CNC(=O)c1ccc(NCC#Cc2nn3c(N[C@@H]4CCN(C)C[C@@H]4F)nccc3c2SC(F)(F)F)c(OC)c1 [Example 214, 4-{[3-(7-{[(3S,4R)-3-fluoro-1-methylpiperidin-4-yl]amino}-3-[(trifluoromethyl)sulfanyl]pyrazolo[1,5-c]pyrimidin-2-yl)prop-2-yn-1-yl]amino}-3-methoxy-N-methylbenzamide]	< 750 nM	–
< 5000 nM	10 to 100 nM	1500 to 3000 nM	< 70%	> 3000 nM	–	–	–	–	–	CNC(=O)c1ccc(OC)c(NCC#Cc2nn3c(N[C@@H]4CCN(C)C[C@@H]4F)ccnc3c2SC(F)(F)F)c1 [Example 216, 3-{[3-(7-{[(3S,4R)-3-fluoro-1-methylpiperidin-4-yl]amino}-3-[(trifluoromethyl)sulfanyl]pyrazolo[1,5-a]pyrimidin-2-yl)prop-2-yn-1-yl]amino}-4-methoxy-N-methylbenzamide]	1500 to 3000 nM	–
< 5000 nM	< 10 nM	< 750 nM	70 to 80%	< 750 nM	–	–	–	–	–	COc1ccc(-c2ncc[nH]2)cc1NCC#Cc1nc2c(N[C@@H]3CCN(C)C[C@@H]3F)cccn2c1SC(F)(F)F [Example 220]	< 750 nM	–
< 5000 nM	< 10 nM	< 750 nM	70 to 80%	< 750 nM	–	–	–	–	–	COc1cc(C(=O)NCCN(C)C)ccc1NCC#Cc1nc2c(N[C@@H]3CCOC[C@@H]3F)cccn2c1SC(F)(F)F [Example 221]	< 750 nM	–
–	–	–	–	–	≥ 10000 nM	< 10 nM	< 750 nM	< 750 nM	> 90%	CNC(=O)c1ccc(C#N)c(NCC#Cc2nc3c(N[C@@H]4CCN(C)C[C@@H]4F)cccn3c2SC(F)(F)F)c1 [Example 224]	–	< 750 nM
–	–	–	–	–	5000 to 8000 nM	< 10 nM	750 to 1500 nM	750 to 1500 nM	70 to 80%	CNC(=O)c1ccc(NCC#Cc2nc3c(N[C@@H]4CCOC[C@@H]4F)cccn3c2SC(F)(F)F)c(OCCN(C)C)c1 [Example 226]	–	750 to 1500 nM
–	–	–	–	–	≥ 10000 nM	< 10 nM	> 3000 nM	> 3000 nM	< 70%	COc1ccc(C(=O)NCC2CN(C)C2)cc1NCC#Cc1nc2c(N[C@@H]3CCOC[C@@H]3F)cccn2c1SC(F)(F)F [Example 228]	–	< 750 nM
–	–	–	–	–	≥ 10000 nM	10 to 100 nM	1500 to 3000 nM	1500 to 3000 nM	80 to 90%	CNC(=O)c1ccc(NCC#Cc2nc3c(N[C@@H]4CCS(=O)(=O)C4)cccn3c2SC(F)(F)F)c(OC)c1 [Example 230]	–	1500 to 3000 nM
–	–	–	–	–	≥ 10000 nM	< 10 nM	< 750 nM	< 750 nM	80 to 90%	COc1ccc(C(N)=O)cc1NCC#Cc1nn2c(N[C@@H]3CCN(C)C[C@@H]3F)cccc2c1SC(F)(F)F [Example 232]	–	< 750 nM
–	–	–	–	–	≥ 10000 nM	< 10 nM	750 to 1500 nM	750 to 1500 nM	80 to 90%	COc1ccc(C(N)=O)nc1NCC#Cc1nn2c(N[C@@H]3CCN(C)C[C@@H]3F)cccc2c1SC(F)(F)F [Example 235]	–	1500 to 3000 nM
–	–	–	–	–	8000 to 10000 nM	< 10 nM	< 750 nM	< 750 nM	> 90%	CNC(=O)c1ccc(OC)c(NCC#Cc2nc3c(NC4COC4)cccn3c2SC(F)(F)F)c1 [Example 240]	–	< 750 nM
–	–	–	–	–	≥ 10000 nM	< 10 nM	1500 to 3000 nM	> 3000 nM	80 to 90%	CNC(=O)c1ccc(OC)c(NCC#Cc2nc3c(N[C@H]4[C@H]5CC[C@@H]4NC5)cccn3c2SC(F)(F)F)c1 [Example 244]	–	750 to 1500 nM
–	–	–	–	–	8000 to 10000 nM	< 10 nM	1500 to 3000 nM	1500 to 3000 nM	70 to 80%	CNC(=O)c1ccc(OC)c(NCC#Cc2nc3c(N[C@@H]4[C@@H]5CC[C@H]4NC5)cccn3c2SC(F)(F)F)c1 [Example 247]	–	750 to 1500 nM
–	–	–	–	–	5000 to 8000 nM	< 10 nM	750 to 1500 nM	750 to 1500 nM	70 to 80%	CNC(=O)c1ccc(OC)c(NCC#Cc2nc3c(N[C@H]4C[C@@H]5CC[C@H]4N5C)cccn3c2SC(F)(F)F)c1 [Example 248]	–	750 to 1500 nM
–	–	–	–	–	5000 to 8000 nM	< 10 nM	750 to 1500 nM	750 to 1500 nM	< 70%	CNC(=O)c1ccc(OC)c(NCC#Cc2nc3c(N[C@@H]4C[C@@H]5CC[C@H]4N5C)cccn3c2SC(F)(F)F)c1 [Example 249]	–	750 to 1500 nM
–	–	–	–	–	≥ 10000 nM	< 10 nM	< 750 nM	< 750 nM	> 90%	CNC(=O)c1cc(NCC#Cc2nc3c(N[C@@H]4CCN(C)C[C@@H]4F)cccn3c2SC(F)(F)F)c(OC)nn1 [Example 259]	–	< 750 nM
–	–	–	–	–	≥ 10000 nM	< 10 nM	< 750 nM	750 to 1500 nM	70 to 80%	CNC(=O)c1ccc(OC)c(NCC#Cc2nc3c(N[C@@H]4CN(C)C[C@@H]4F)cccn3c2CC(F)(F)F)n1 [Example 262]	–	750 to 1500 nM
–	–	–	–	–	≥ 10000 nM	< 10 nM	1500 to 3000 nM	> 3000 nM	70 to 80%	CNC(=O)c1ccc(OC)c(NCC#Cc2nc3c(N[C@@H]4CNC[C@@H]4F)cccn3c2CC(F)(F)F)n1 [Example 263]	–	750 to 1500 nM
–	–	–	–	–	≥ 10000 nM	< 10 nM	< 750 nM	< 750 nM	70 to 80%	CNC(=O)c1cnc(OC)c(NCC#Cc2nc3c(N[C@H]4C[C@@H]5CC[C@H]([C@H]4F)N5C)cccn3c2SC(F)(F)F)c1 [Example 266]	–	< 750 nM
–	–	–	–	–	≥ 10000 nM	< 10 nM	< 750 nM	< 750 nM	70 to 80%	CNC(=O)c1cnc(OC)c(NCC#Cc2nc3c(N[C@H]4C[C@@H]5CC[C@@H](N5)[C@H]4F)cccn3c2SC(F)(F)F)c1 [Example 267]	–	< 750 nM
